According to patent publication US5916905A, “2,3-substituted pyridines for the treatment of inflammation” (G. D. Searle & Co., priority 1997, dated 1999):

Legend:
[1] = system: carrageenan foot edema; experiment: Rat Carrageenan Foot Pad Edema Test; assay type: in vivo, rat (male Sprague-Dawley); settings: @ 10 mg/kg body weight, oral, 1 h before carrageenan; read 3 h after injection
Protocol: Rat Carrageenan Foot Pad Edema Test
Male Sprague-Dawley rats were selected in each group so that the average body weight was as close as possible. Rats were fasted with free access to water for over sixteen hours prior to the test. […] One hour later a subplantar injection of 0.1 mL of 1% solution of carrageenan/sterile 0.9% saline was administered and the volume of the injected foot was measured with a displacement plethysmometer connected to a pressure transducer with a digital indicator. Three hours after the injection of the carrageenan, the volume of the foot was again measured.

[2] = target: T1, COX-2 (Homo sapiens, UniProt P35354); experiment: COX-2 activity in vitro, recombinant human enzyme (PGE2 ELISA); assay type: biochemical; settings: human (h); 10 μM arachidonic acid, 10-20 min pre-incubation; read-out: COX-2 ID50
T1 construct: A 2.0 kb fragment containing the coding region; made in house; host or cells: SF9 insect cells (baculovirus, pVL1393)
T1 sequence (P35354 18-604): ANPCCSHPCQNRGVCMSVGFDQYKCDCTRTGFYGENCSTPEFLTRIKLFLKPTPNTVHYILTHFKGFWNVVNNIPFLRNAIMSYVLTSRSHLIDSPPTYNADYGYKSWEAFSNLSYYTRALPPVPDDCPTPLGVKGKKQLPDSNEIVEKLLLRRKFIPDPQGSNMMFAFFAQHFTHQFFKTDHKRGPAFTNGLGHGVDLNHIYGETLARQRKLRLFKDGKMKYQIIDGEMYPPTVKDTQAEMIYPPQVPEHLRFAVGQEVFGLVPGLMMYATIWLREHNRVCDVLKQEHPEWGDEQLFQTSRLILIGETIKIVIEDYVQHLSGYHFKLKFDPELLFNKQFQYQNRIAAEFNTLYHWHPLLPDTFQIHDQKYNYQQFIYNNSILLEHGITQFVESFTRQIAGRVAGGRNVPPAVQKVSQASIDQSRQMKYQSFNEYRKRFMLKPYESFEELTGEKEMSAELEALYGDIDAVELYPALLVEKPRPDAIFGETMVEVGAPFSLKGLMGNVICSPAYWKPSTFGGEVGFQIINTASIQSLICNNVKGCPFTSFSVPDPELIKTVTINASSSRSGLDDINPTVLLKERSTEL
Protocol: (§1) The COX-2 inhibition activity of the compounds of this invention illustrated in the Examples was determined by the following methods.
(§2) Recombinant COX-1 and COX-2 were prepared as described by Gierse et al, [J. Biochem., 305, 479-84 (1995)]. A 2.0 kb fragment containing the coding region of either human or murine COX-1 or human or murine COX-2 was cloned into a BamH1 site of the baculovirus transfer vector pVL1393 (Invitrogen) to generate the baculovirus transfer vectors for COX-1 and COX-2 in a manner similar to the method of D. R. O'Reilly et al (Baculovirus Expression Vectors: A Laboratory Manual (1992)). Recombinant baculoviruses were isolated by transfecting 4 μg of baculovirus transfer vector DNA into SF9 insect cells (2×10^8) along with 200 ng of linearized baculovirus plasmid DNA by the calcium phosphate method. See M. D. Summers and G. E. Smith, A Manual of Methods for Baculovirus Vectors and Insect Cell Culture Procedures, Texas Agric. Exp. Station Bull. 1555 (1987). Recombinant viruses were purified by three rounds of plaque purification and high titer (10^7 -10^8 pfu/ml) stocks of virus were prepared. For large scale production, SF9 insect cells were infected in 10 liter fermentors (0.5×10^6 /ml) with the recombinant baculovirus stock such that the multiplicity of infection was 0.1. After 72 hours the cells were centrifuged and the cell pellet homogenized in Tris/Sucrose (50 mM: 25%, pH 8.0) containing 1% 3-[(3-cholamidopropyl)dimethylammonio]-1-propanesulfonate (CHAPS). The homogenate was centrifuged at 10,000×G for 30 minutes, and the resultant supernatant was stored at -80° C. before being assayed for COX activity.
(§3) b. Assay for COX-1 and COX-2 activity COX activity was assayed as PGE2 formed/μg protein/time using an ELISA to detect the prostaglandin released. CHAPS-solubilized insect cell membranes containing the appropriate COX enzyme were incubated in a potassium phosphate buffer (50 mM, pH 8.0) containing epinephrine, phenol, and heme with the addition of arachidonic acid (10 μM). Compounds were pre-incubated with the enzyme for 10-20 minutes prior to the addition of arachidonic acid. Any reaction between the arachidonic acid and the enzyme was stopped after ten minutes at 37° C./room temperature by transferring 40 μl of reaction mix into 160 μl ELISA buffer and 25 μM indomethacin. The PGE2 formed was measured by standard ELISA technology (Cayman Chemical).

[3] = target: T2, COX-1 (Homo sapiens, UniProt P23219); experiment: COX-1 activity in vitro, recombinant human enzyme (PGE2 ELISA); assay type: biochemical; settings: human (h); 10 μM arachidonic acid, 10-20 min pre-incubation; read-out: COX-1 ID50
T2 construct: A 2.0 kb fragment containing the coding region; made in house; host or cells: SF9 insect cells (baculovirus, pVL1393)
T2 sequence (P23219 24-599): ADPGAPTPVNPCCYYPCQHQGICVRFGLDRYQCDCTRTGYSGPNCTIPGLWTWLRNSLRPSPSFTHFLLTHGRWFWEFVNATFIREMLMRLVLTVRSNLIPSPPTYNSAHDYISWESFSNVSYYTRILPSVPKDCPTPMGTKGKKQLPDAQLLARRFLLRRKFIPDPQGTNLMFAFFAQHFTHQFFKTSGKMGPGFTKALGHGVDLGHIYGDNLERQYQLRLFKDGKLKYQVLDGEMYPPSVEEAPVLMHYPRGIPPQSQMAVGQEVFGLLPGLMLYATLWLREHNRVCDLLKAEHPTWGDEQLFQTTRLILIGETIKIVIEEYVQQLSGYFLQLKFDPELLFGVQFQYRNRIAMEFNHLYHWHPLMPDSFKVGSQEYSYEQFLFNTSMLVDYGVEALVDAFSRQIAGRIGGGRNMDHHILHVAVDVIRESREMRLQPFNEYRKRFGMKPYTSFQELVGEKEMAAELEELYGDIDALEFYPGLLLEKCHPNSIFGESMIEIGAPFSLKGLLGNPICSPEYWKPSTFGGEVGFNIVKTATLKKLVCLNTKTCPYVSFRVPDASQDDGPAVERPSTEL
Protocol: as §1, §2, §3

[4] = target: T3, COX-2 (Mus musculus, UniProt Q05769); experiment: COX-2 activity in vitro, recombinant murine enzyme (PGE2 ELISA); assay type: biochemical; settings: murine (m); 10 μM arachidonic acid, 10-20 min pre-incubation; read-out: COX-2 ID50
T3 construct: A 2.0 kb fragment containing the coding region; made in house; host or cells: SF9 insect cells (baculovirus, pVL1393)
T3 sequence (Q05769 18-604): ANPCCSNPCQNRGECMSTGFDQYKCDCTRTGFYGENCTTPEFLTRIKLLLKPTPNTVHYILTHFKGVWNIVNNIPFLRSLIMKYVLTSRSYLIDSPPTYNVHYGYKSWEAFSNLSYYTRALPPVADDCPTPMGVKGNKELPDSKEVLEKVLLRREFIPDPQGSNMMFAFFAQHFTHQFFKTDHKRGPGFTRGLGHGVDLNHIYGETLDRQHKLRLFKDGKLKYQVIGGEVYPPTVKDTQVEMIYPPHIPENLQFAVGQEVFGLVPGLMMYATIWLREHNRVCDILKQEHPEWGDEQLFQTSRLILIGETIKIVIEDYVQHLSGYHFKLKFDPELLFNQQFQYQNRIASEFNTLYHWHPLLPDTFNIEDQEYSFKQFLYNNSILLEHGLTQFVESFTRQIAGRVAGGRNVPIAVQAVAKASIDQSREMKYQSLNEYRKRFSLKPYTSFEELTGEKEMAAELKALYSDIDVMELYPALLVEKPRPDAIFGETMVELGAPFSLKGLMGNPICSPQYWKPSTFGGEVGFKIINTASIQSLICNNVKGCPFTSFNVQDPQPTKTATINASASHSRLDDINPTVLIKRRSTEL
Protocol: as §1, §2, §3

[5] = target: T4, COX-1 (Mus musculus, UniProt P22437); experiment: COX-1 activity in vitro, recombinant murine enzyme (PGE2 ELISA); assay type: biochemical; settings: murine (m); 10 μM arachidonic acid, 10-20 min pre-incubation; read-out: COX-1 ID50
T4 construct: A 2.0 kb fragment containing the coding region; made in house; host or cells: SF9 insect cells (baculovirus, pVL1393)
T4 sequence (P22437 27-602): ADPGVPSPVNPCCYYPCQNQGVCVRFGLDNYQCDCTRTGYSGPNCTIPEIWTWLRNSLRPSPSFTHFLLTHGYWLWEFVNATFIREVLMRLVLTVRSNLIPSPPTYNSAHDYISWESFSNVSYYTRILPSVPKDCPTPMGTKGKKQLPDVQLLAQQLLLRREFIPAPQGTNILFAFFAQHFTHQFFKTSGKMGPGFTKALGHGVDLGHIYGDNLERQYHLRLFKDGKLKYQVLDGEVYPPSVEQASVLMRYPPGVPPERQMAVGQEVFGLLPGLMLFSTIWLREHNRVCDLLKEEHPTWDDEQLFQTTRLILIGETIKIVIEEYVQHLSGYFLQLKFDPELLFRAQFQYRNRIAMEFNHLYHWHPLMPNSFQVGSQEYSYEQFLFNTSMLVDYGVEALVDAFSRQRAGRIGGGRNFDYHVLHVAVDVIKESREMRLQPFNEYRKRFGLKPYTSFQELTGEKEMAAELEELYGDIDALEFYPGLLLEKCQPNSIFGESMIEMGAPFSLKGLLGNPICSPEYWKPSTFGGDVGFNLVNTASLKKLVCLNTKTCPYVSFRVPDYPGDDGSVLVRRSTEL
Protocol: as §1, §2, §3

| Compound | IC50 [4] [µM] | IC50 [5] [µM] | RAT PAW EDEMA % Inhibition [1] [%] | IC50 [2] [µM] | IC50 [3] [µM] |
| --- | --- | --- | --- | --- | --- |
| COc1nc(-c2ccc(F)cc2)c(-c2ccc(S(C)(=O)=O)cc2)cc1C#N [Example 2, 6-(4-Fluorophenyl)-2-methoxy-5-[4-(methylsulfonyl)phenyl]-pyridine-3-carbonitrile] | – | – | 16 | 0.2 | > 100 |
| CS(=O)(=O)c1ccc(-c2cc(C#N)c(Br)nc2-c2ccc(F)cc2)cc1 [Example 3, 2-Bromo-6-(4-fluorophenyl)-5-[4-(methylsulfonyl)phenyl]-pyridine-3-carbonitrile] | < 0.1 | > 10 | 16 | – | – |
| CS(=O)(=O)c1ccc(-c2cc(C#N)c(-c3ccccc3)nc2-c2ccc(F)cc2)cc1 [Example 4, 6-(4-Fluorophenyl)-5-[4-(methylsulfonyl)phenyl]-2-phenyl-pyridine-3-carbonitrile] | < 0.1 | > 10 | 18 | – | – |
| CS(=O)(=O)c1ccc(-c2cc(C#N)c(Cl)nc2-c2ccc(F)cc2)cc1 [Example 7, 2-Chloro-6-(4-fluorophenyl)-5-[4-(methylsulfonyl)phenyl]-pyridine-3-carbonitrile] | 0.1 | > 100 | – | – | – |
| CS(=O)(=O)c1ccc(-c2cc(C(N)=O)cnc2-c2ccc(F)cc2)cc1 [Example 21, 6-(4-Fluorophenyl)-5-[4-(methylsulfonyl)phenyl]pyridine-3-carboxamide] | 105 | > 100 | – | – | – |

Further compounds by falling IC50 [4], results first:

| IC50 [4] [µM] | IC50 [5] [µM] | Compound | RAT PAW EDEMA % Inhibition [1] [%] | IC50 [2] [µM] | IC50 [3] [µM] |
| --- | --- | --- | --- | --- | --- |
| 26.2 | > 100 | CS(=O)(=O)c1ccc(-c2cc(C(N)=O)c(Cl)nc2-c2ccc(F)cc2)cc1 [Example 20, 2-Chloro-6-(4-fluorophenyl)-5-[4-(methylsulfonyl)phenyl]pyridine-3-carboxamide] | – | – | – |
| 0.3 | > 10 | CS(=O)(=O)c1ccc(-c2cc(C#N)cnc2-c2ccc(F)cc2)cc1 [Example 22, 6-(4-Fluorophenyl)-5-[4-(methylsulfonyl)phenyl]pyridine-3-carbonitrile] | – | – | – |
| 0.3 | > 100 | COc1nc(-c2ccc(S(C)(=O)=O)cc2)c(-c2ccc(F)cc2)cc1C#N [Example 23] | – | – | – |
